Laboratory results taken from the supplement of paper PMC4862054.

Legend:
Conditions in all cases: incubation time: 72 h
Hs578T = test: normalised viability (% of control), CellTiter-Blue; higher = more viable cells (100 = DMSO, 0 = benzethonium chloride kill control)
Experimental: (§1)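 DSRT, CellTiter-Blue viability, 72 h incubation. Signal is normalised to DMSO and benzethonium chloride controls. Value is the normalised response at dose 1.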

CAL-51 = test: as above
Experimental: as §1

MFM-223 = test: as above
Experimental: as §1

HCC1937 = test: as above
Experimental: as §1

BT-549 = test: as above
Experimental: as §1

CAL-85-1 [1] = test: as above
Experimental: as §1

CAL-148 = test: as above
Experimental: as §1

MDA-MB-436 [2] = test: as above
Experimental: as §1

HCC1599 [3] = test: as above
Experimental: as §1

DU-4475 [4] = test: as above
Experimental: as §1

MDA-MB-231 [5] = test: as above
Experimental: as §1

BT-474 [6] = test: as above
Experimental: as §1

SK-BR-3 [7] = test: as above
Experimental: as §1

MDA-MB-453 [8] = test: as above
Experimental: as §1

HDQ-P1 [9] = test: as above
Experimental: as §1

CAL-120 = test: as above
Experimental: as §1

HCC1143 = test: as above
Experimental: as §1

MDA-MB-468 = test: as above
Experimental: as §1

CAL-85-1 [10] = test: drug sensitivity score (DSS), CellTiter-Blue viability (DSS (AUC-based score)); higher = stronger viability inhibition; extreme values may be limits of the assay
Experimental: (§2)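 DSRT with the CellTiter-Blue (resazurin reduction) viability readout, fluorescence 560/590 nm, 72 h incubation. Plates were normalised to DMSO and benzethonium chloride controls. DSS is computed from the area under the fitted dose-response curve (5 or 9 concentrations).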

MDA-MB-436 [11] = test: as above
Experimental: as §2

HCC1599 [12] = test: as above
Experimental: as §2

DU-4475 [13] = test: as above
Experimental: as §2

MDA-MB-231 [14] = test: as above
Experimental: as §2

BT-474 [15] = test: as above
Experimental: as §2

SK-BR-3 [16] = test: as above
Experimental: as §2

MDA-MB-453 [17] = test: as above
Experimental: as §2

HDQ-P1 [18] = test: as above
Experimental: as §2

| Compound | normalised viability (Hs578T; 1 nM) [%] | normalised viability (CAL-51; 1 nM) [%] | normalised viability (MFM-223; 1 nM) [%] | normalised viability (HCC1937; 1 nM) [%] | normalised viability (BT-549; 1 nM) [%] | normalised viability (CAL-85-1 [1]; 1 nM) [%] | normalised viability (CAL-148; 1 nM) [%] | normalised viability (MDA-MB-231 [5]; 1 nM) [%] | normalised viability (BT-474 [6]; 1 nM) [%] | normalised viability (SK-BR-3 [7]; 1 nM) [%] | normalised viability (MDA-MB-468; 1 nM) [%] | drug sensitivity score (CAL-85-1 [10]) | drug sensitivity score (MDA-MB-436 [11]) | drug sensitivity score (HCC1599 [12]) | drug sensitivity score (DU-4475 [13]) | drug sensitivity score (MDA-MB-231 [14]) | drug sensitivity score (BT-474 [15]) | drug sensitivity score (SK-BR-3 [16]) | drug sensitivity score (MDA-MB-453 [17]) | drug sensitivity score (HDQ-P1 [18]) | further results |
| --- | --- | --- | --- | --- | --- | --- | --- | --- | --- | --- | --- | --- | --- | --- | --- | --- | --- | --- | --- | --- | --- |
| O=C(NC[C@H](O)CO)c1ccncc1Nc1ccc(I)cc1F | 111 | 99.6 | 97.9 | 87.6 | 111 | 92.1 | 92.3 | 92.5 | 96.8 | 92.1 | 104 | 6.9 | 0 | 4.05 | 35.2 | 21.9 | 0 | 0 | 4.94 | 10.3 | normalised viability (MDA-MB-436 [2]; 1 nM): 124%; normalised viability (HCC1599 [3]; 1 nM): 108%; normalised viability (DU-4475 [4]; 1 nM): 92.6%; normalised viability (MDA-MB-453 [8]; 1 nM): 87.9%; normalised viability (HDQ-P1 [9]; 1 nM): 103%; normalised viability (CAL-120; 1 nM): 81.3%; normalised viability (HCC1143; 1 nM): 87.6% |
| C[C@]12O[C@H](C[C@]1(O)CO)n1c3ccccc3c3c4c(c5c6ccccc6n2c5c31)CNC4=O [Lestaurtinib] | – | – | – | – | – | – | – | – | – | – | – | 3.82 | 3.43 | 2.58 | 8.26 | 0 | 0 | 1.47 | 6.19 | 0 | normalised viability (Hs578T; 0.1 nM): 118%; normalised viability (CAL-51; 0.1 nM): 115%; normalised viability (MFM-223; 0.1 nM): 107%; normalised viability (HCC1937; 0.1 nM): 96.4%; normalised viability (BT-549; 0.1 nM): 120%; normalised viability (CAL-85-1 [1]; 0.1 nM): 100%; normalised viability (CAL-148; 0.1 nM): 118%; normalised viability (MDA-MB-436 [2]; 0.1 nM): 126%; normalised viability (HCC1599 [3]; 0.1 nM): 109%; normalised viability (DU-4475 [4]; 0.1 nM): 110%; normalised viability (MDA-MB-231 [5]; 0.1 nM): 115%; normalised viability (BT-474 [6]; 0.1 nM): 100%; normalised viability (SK-BR-3 [7]; 0.1 nM): 97.7%; normalised viability (MDA-MB-453 [8]; 0.1 nM): 113%; normalised viability (HDQ-P1 [9]; 0.1 nM): 113%; normalised viability (CAL-120; 0.1 nM): 101%; normalised viability (HCC1143; 0.1 nM): 107%; normalised viability (MDA-MB-468; 0.1 nM): 126% |
| CO[C@@H](C(=O)N1Cc2[nH]nc(NC(=O)c3ccc(N4CCN(C)CC4)cc3)c2C1)c1ccccc1 [Danusertib] | 96.6 | 116 | 53.6 | 91.3 | 109 | 77.2 | 101 | 101 | 101 | 79.4 | 98.7 | 10.7 | 4.87 | 6.9 | 14.2 | 11 | 0 | 0 | 18.4 | 14.3 | normalised viability (MDA-MB-436 [2]; 1 nM): 96.5%; normalised viability (HCC1599 [3]; 1 nM): 94.1%; normalised viability (DU-4475 [4]; 1 nM): 107%; normalised viability (MDA-MB-453 [8]; 1 nM): 84.3%; normalised viability (HDQ-P1 [9]; 1 nM): 110%; normalised viability (CAL-120; 1 nM): 81%; normalised viability (HCC1143; 1 nM): 99.3% |
| CCC/C=C/C=C/C(=O)O[C@H]1/C(=C/C(=O)OC)C[C@H]2C[C@H]([C@@H](C)O)OC(=O)C[C@H](O)C[C@@H]3C[C@H](OC(C)=O)C(C)(C)[C@](O)(C[C@@H]4C/C(=C/C(=O)OC)C[C@H](/C=C/C(C)(C)[C@]1(O)O2)O4)O3 [Bryostatin 1] | – | – | – | 85.2 | – | – | – | 98.7 | 105 | 103 | 99.1 | 7.23 | 0 | 16.1 | 0 | 0 | 0 | 4.97 | 0 | 0 | normalised viability (Hs578T; 0.01 nM): 106%; normalised viability (CAL-51; 0.01 nM): 99.2%; normalised viability (MFM-223; 0.01 nM): 96.2%; normalised viability (BT-549; 0.01 nM): 109%; normalised viability (CAL-85-1 [1]; 0.01 nM): 97.5%; normalised viability (CAL-148; 0.01 nM): 98.8%; normalised viability (MDA-MB-436 [2]; 0.01 nM): 140%; normalised viability (HCC1599 [3]; 0.01 nM): 123%; normalised viability (DU-4475 [4]; 0.01 nM): 118%; normalised viability (MDA-MB-453 [8]; 0.01 nM): 102%; normalised viability (HDQ-P1 [9]; 0.01 nM): 100%; normalised viability (CAL-120; 0.01 nM): 85.8%; normalised viability (HCC1143; 0.01 nM): 114% |
| COc1ccc(-c2cc3c(C)nc(N)nc3n([C@H]3CC[C@H](OCCO)CC3)c2=O)cn1 | 100 | 95.4 | 102 | 90.5 | 96.5 | 105 | 104 | 118 | 100 | 86.5 | 104 | 16.7 | 17.9 | 16.2 | 13.7 | 19.9 | 19.6 | 24.9 | 24.6 | 22.5 | normalised viability (MDA-MB-436 [2]; 1 nM): 103%; normalised viability (HCC1599 [3]; 1 nM): 130%; normalised viability (DU-4475 [4]; 1 nM): 106%; normalised viability (MDA-MB-453 [8]; 1 nM): 87.1%; normalised viability (HDQ-P1 [9]; 1 nM): 75.8%; normalised viability (CAL-120; 1 nM): 120%; normalised viability (HCC1143; 1 nM): 106% |
| O=S(=O)(c1cccc2cnccc12)N1CCCNCC1 [Fasudil] | 116 | 111 | 105 | 88.6 | 98.8 | 96 | 90.8 | 106 | 102 | 93.8 | 102 | 0 | 0 | 0 | 0 | 0 | 0 | 0 | 0.912 | 0 | normalised viability (MDA-MB-436 [2]; 1 nM): 109%; normalised viability (HCC1599 [3]; 1 nM): 99.4%; normalised viability (DU-4475 [4]; 1 nM): 108%; normalised viability (MDA-MB-453 [8]; 1 nM): 121%; normalised viability (HDQ-P1 [9]; 1 nM): 99.9%; normalised viability (CAL-120; 1 nM): 83.9%; normalised viability (HCC1143; 1 nM): 92.8% |
